How the values were obtained:
[1] = system: root rot on pea (Fusarium solani f. sp. pisi); test: Test Example 1: seed treatment of pea, control of root rot; type: in vivo; details: pea seeds, 10 gai/100 kg seed
Protocol: (§1) 10 μl of a dimethylsulphoxide solution of the compound (1b) and 10 g of pea (Waiseiakabanakinusaya) seeds were put in a 50 ml tube and mixed to allow the compound (1b) to stick to the surface of the seeds and then the mixture was allowed to stand still overnight to obtain treated seeds of the present invention. A plastic pot was filled with sandy soil, and the treated seeds of the present invention were disseminated. Then the seeds were covered with sandy soil, which had been mixed with a bran medium on which root rot on pea (Fusarium solani f. sp. pisi) had been allowed to grow and the peas were grown in a greenhouse of from 22 to 24° C. for six days while sprinkling water appropriately. A spore suspension of root rot on pea was perfused on the root of the seedlings for inoculation and the peas were allowed to grow in a greenhouse for further six days and the control effect was checked.
Besides, the incidence of disease was also checked in the case of seeds without the treatment with the agent in order to calculate the control value.
(§2) The incidence of disease was calculated by Equation 1 and the control value was calculated by Equation 2 based on the incidence of disease.
Incidence of disease=(Number of no budding seeds and number of seedlings in which development of disease was observed)×100/(Number of total disseminated seeds) “Equation 1” Control value=100×(A−B)/A “Equation 2” […]

[2] = system: root rot on pea (Fusarium solani f. sp. pisi); test: Test Example 3: seed treatment of pea, control of root rot, with reference compounds; type: in vivo; design: key to Incidence of disease: % = (non-budding seeds + diseased seedlings)×100/total seeds; key to Control value: control value = 100×(A−B)/A, A = untreated, B = treated incidence; details: pea seeds; for Incidence of disease: untreated 53
Protocol: Incidence of disease=(Number of no budding seeds and number of seedlings in which development of disease was observed)×100/(Number of total disseminated seeds) “Equation 1” Control value=100×(A−B)/A “Equation 2”
as §1, with “of the compound (1a) or compound (1b)” for “of the compound (1b)”, “allow the compound (1a) or compound (1b)” for “allow the compound (1b)”
Besides, the incidence of disease was also checked in the case of seeds without the treatment with the agent in order to calculate the control value. Also, 2-[2-(2-methyl-phenoxymethyl)-phenyl]-2-methoxy-N-methyl-acetamide, which is described in International Publication WO 95/27,693 and hereinafter referred to as compound A, and 2-[2-(2-chloro-5-methyl-phenoxymethyl)-phenyl]-2-methoxy-N-methyl-acetamide, which is described in International Publication WO 96/07,633 and hereinafter referred to as compound B, were used as reference compounds.
as §2

rice 'Bakanae' disease = test: Test Example 2: immersion of unhulled rice seeds affected with rice 'Bakanae' disease; type: in vivo, Gibberella fujikuroi; design: key to Incidence of disease: % of seedlings diseased: diseased×100/total seedlings; key to Control value: 100×(A−B)/A, from incidence of disease (untreated A, treated B); details: rice seeds immersed 24 hours; for Incidence of disease: untreated 19.2
Protocol: Incidence of disease=(Number of no budding seeds and number of seedlings in which development of disease was observed)×100/(Number of total disseminated seeds) “Equation 1” Control value=100×(A−B)/A “Equation 2” The flowable of the compound (1a) and the flowable of the compound (1b) were diluted with water to prepare an agent solution containing the compound (1a) or compound (1b). Unhulled rice seeds (Tanginbozu) affected with rice ‘Bakanae’ disease was immersed in the agent solution for 24 hours and then the unhulled rice seeds were taken out of the agent solution and air dried to obtain treated seeds. The treated seeds were immersed in water at 12° C. for 4 days and subsequently in water at 30° C. overnight. A plastic pot was filled with sandy soil, and the treated seeds were disseminated and allowed to grow in a greenhouse at 26° C. for 23 days to investigate the control effect. Besides, the incidence of disease was also checked in the case of seeds without the treatment with the agent in order to calculate the control value. The incidence of disease was calculated by Equation 3 and the control value was calculated based on the incidence of disease by Equation 2. Incidence of disease=(Number of seedlings in which development of disease was observed)×100/(Number of total seedlings) “Equation 3”

Row | Structure (SMILES) | Control value [1] | Incidence of disease ([1]; untreated 33) | Control value ([2]; 2.5 gai/100 kg seed) | Incidence of disease ([2]; 2.5 gai/100 kg seed) | Control value ([2]; 10 gai/100 kg seed) | Incidence of disease ([2]; 10 gai/100 kg seed) | Control value (rice 'Bakanae' disease; 62.5 ppm) | Incidence of disease (rice 'Bakanae' disease; 62.5 ppm) | Control value (rice 'Bakanae' disease; 125 ppm) | Incidence of disease (rice 'Bakanae' disease; 125 ppm) | Control value (rice 'Bakanae' disease; 500 ppm) | Incidence of disease (rice 'Bakanae' disease; 500 ppm) | Control value (rice 'Bakanae' disease; 2000 ppm) | Incidence of disease (rice 'Bakanae' disease; 2000 ppm)
1 | CNC(=O)C(OC)c1ccccc1COc1cc(C)ccc1C (racemic) [Compound (1b)] | 100 | 0 | 81 | 10 | 100 | 0 | 95 | 0.9 | 93 | 1.4 | 92 | 1.6 | 93 | 1.3
2 | CNC(=O)C(OC)c1ccccc1COc1cc(C)ccc1Cl (centres unmarked) [Compound B, 2-[2-(2-chloro-5-methyl-phenoxymethyl)-phenyl]-2-methoxy-N-methyl-acetamide, reference compound] | – | – | 62 | 20 | 81 | 10 | – | – | – | – | – | – | – | –
3 | CNC(=O)[C@H](OC)c1ccccc1COc1cc(C)ccc1C [Compound (1a)] | – | – | 97 | 4 | 100 | 0 | – | – | – | – | – | – | – | –
4 | CNC(=O)C(OC)c1ccccc1COc1ccccc1C (centres unmarked) [Compound A, 2-[2-(2-methyl-phenoxymethyl)-phenyl]-2-methoxy-N-methyl-acetamide, reference compound] | – | – | 57 | 23 | 87 | 7 | – | – | – | – | – | – | – | –

— patent US8293681B2, “Seed treatment agent and method for protecting plant” (Sumitomo Chemical Company, Ltd., priority 2008, dated 2012)
